According to PubChem BioAssay (NCI):
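Each compound was tested at five concentrations against cells in 96-well plates for 48 hours. Definition used: TGI = concentration required for complete inhibition of growth.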

Columns and labels:
Assay in all cases: growth of human tumour cells (NCI), 48 h
A498 renal = tested on: A498 renal
A549 NSCLC = tested on: A549 NSCLC
BT-549 breast = tested on: BT-549 breast
CAKI-1 renal = tested on: CAKI-1 renal
CCRF-CEM leukemia = tested on: CCRF-CEM leukemia
HCC-2998 colon = tested on: HCC-2998 colon
HCT-116 colon = tested on: HCT-116 colon
HOP-92 NSCLC = tested on: HOP-92 NSCLC
IGROV1 ovarian = tested on: IGROV1 ovarian
MALME-3M melanoma = tested on: MALME-3M melanoma
MDA-N = tested on: MDA-N
NCI-H226 lung = tested on: NCI-H226 lung
OVCAR-3 ovarian = tested on: OVCAR-3 ovarian
RXF 393 renal = tested on: RXF 393 renal
SF-295 CNS = tested on: SF-295 CNS
SK-OV-3 ovarian = tested on: SK-OV-3 ovarian
SN12C renal = tested on: SN12C renal
T-47D breast = tested on: T-47D breast
U251 CNS = tested on: U251 CNS
NCI-H460 lung = tested on: NCI-H460 lung

Row | Structure (SMILES) | TGI (A498 renal) [µM] | TGI (A549 NSCLC) [µM] | TGI (BT-549 breast) [µM] | TGI (CAKI-1 renal) [µM] | TGI (CCRF-CEM leukemia) [µM] | TGI (HCC-2998 colon) [µM] | TGI (HCT-116 colon) [µM] | TGI (HOP-92 NSCLC) [µM] | TGI (IGROV1 ovarian) [µM] | TGI (MALME-3M melanoma) [µM] | TGI (MDA-N) [µM] | TGI (NCI-H226 lung) [µM] | TGI (OVCAR-3 ovarian) [µM] | TGI (RXF 393 renal) [µM] | TGI (SF-295 CNS) [µM] | TGI (SK-OV-3 ovarian) [µM] | TGI (SN12C renal) [µM] | TGI (T-47D breast) [µM] | TGI (U251 CNS) [µM] | TGI (NCI-H460 lung) [µM]
1 | Nc1cc2c3c(cccc3c1)C(=O)N(c1ccc(OCCN3CCCCC3)cc1)C2=O | 31.9 | 28.2 | 38.4 | 32.4 | 88.3 | 34 | 51.7 | 34.2 | 34.4 | 19.8 | 41.2 | 42.1 | 30.7 | 35.7 | 33.4 | 31.7 | > 54.3 | 46.6 | 61.6 | –
2 | O=C1CC(CC(O)C(O)C(O)CO)CC(=O)N1 (stereo not drawn) | > 100 | > 100 | > 100 | > 100 | > 100 | > 100 | > 100 | > 100 | > 100 | > 100 | > 100 | > 100 | > 100 | > 100 | > 100 | – | > 100 | > 100 | > 100 | > 100
3 | O=S(=O)(N=S(c1ccc(Cl)cc1)c1ccc(Cl)cc1)c1ccccc1 | > 100 | > 100 | > 100 | > 100 | > 100 | > 100 | > 100 | > 100 | > 100 | > 100 | > 100 | > 100 | – | > 100 | > 100 | > 100 | > 100 | > 100 | > 100 | > 100
4 | CC(C)[Si](OC1=C(C(=O)Nc2ccccc2Cl)CCCCC1)(C(C)C)C(C)C | > 100 | > 100 | > 100 | > 100 | 12.3 | > 100 | > 100 | > 100 | > 100 | > 100 | > 100 | > 100 | > 100 | > 100 | > 100 | > 100 | > 100 | > 100 | > 100 | > 100
5 | O=c1c2cc([N+](=O)[O-])ccc2n(Cc2ccccc2)n1Cc1ccccc1 | > 31.6 | > 31.6 | 27 | > 31.6 | > 31.6 | > 31.6 | > 31.6 | > 31.6 | > 31.6 | > 31.6 | 21.2 | > 31.6 | > 31.6 | > 31.6 | > 31.6 | – | > 31.6 | 24.7 | > 31.6 | 26.9
6 | COC1=NC(NC2OCC(O)C(O)C2O)=C(NC(C)=O)CN1C (stereo not drawn) | > 100 | > 100 | > 100 | > 100 | > 100 | > 100 | > 100 | > 100 | – | > 100 | > 100 | > 100 | > 100 | > 100 | > 100 | > 100 | – | > 100 | – | > 100
